Assay results published in US9006487B2, “Amine-containing lipids and uses thereof” (Massachusetts Institute of Technology, priority 2005, dated 2015).
Several values for one entry are separate records, joined by “and”; a condition that tells them apart may be missing. Equal values may be shown once.

Tested on: cos-7 cells
Assay: DNA transfection: luciferase expression relative to Lipofectamine 2000
Type: cell-based
Conditions: for Luciferase expression as a percentage of that achieved using Lipofectamine 2000: 300 ng Luciferase DNA per well, luciferase assay after 48 hours; for luciferase expression (second part of table, values relative to LIPO2000): 300 ng of DNA per well
Method in brief: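 cos-7 cells were transfected with 300 ng/well luciferase DNA complexed with lipid at ratios from 2.5 to 25 w/w. Bright-Glo luminescence was read after 48 hours and converted to ng luciferase by standard curve. Data are percent of the Lipofectamine 2000 control (2.5 w/w).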

Row | Structure (SMILES) | Luciferase expression as a percentage of that achieved using Lipofectamine 2000 (lipid/DNA 2.5 w/w) | Luciferase expression as a percentage of that achieved using Lipofectamine 2000 (lipid/DNA 5 w/w) | Luciferase expression as a percentage of that achieved using Lipofectamine 2000 (lipid/DNA 10 w/w) | Luciferase expression as a percentage of that achieved using Lipofectamine 2000 (lipid/DNA 15 w/w) | Luciferase expression as a percentage of that achieved using Lipofectamine 2000 (lipid/DNA 20 w/w) | Luciferase expression as a percentage of that achieved using Lipofectamine 2000 (lipid/DNA 25 w/w) | luciferase expression (second part of table, values relative to LIPO2000) (lipid/DNA 2.5 w/w) | luciferase expression (second part of table, values relative to LIPO2000) (lipid/DNA 5 w/w) | luciferase expression (second part of table, values relative to LIPO2000) (lipid/DNA 10 w/w) | luciferase expression (second part of table, values relative to LIPO2000) (lipid/DNA 15 w/w) | luciferase expression (second part of table, values relative to LIPO2000) (lipid/DNA 20 w/w) | luciferase expression (second part of table, values relative to LIPO2000) (lipid/DNA 25 w/w)
1 | CCCCCCCCCCCCCCOC(=O)CCN(CC)CCN(CC)CCC(=O)OCCCCCCCCCCCCCC [LF61] | 0.1% | 0.1% | 0.1% | 0.1% | 0.1% | 0.1% |  |  |  |  |  | 
2 | CCCCCCCCCCCCCCOC(=O)CCN(CCN(CCC(=O)OCCCCCCCCCCCCCC)C(C)C)C(C)C [LF62] | 0.1% | 0.1% | 0.2% | 0.1% | 0.4% | 0.2% |  |  |  |  |  | 
3 | CCCCCCCCCCCCCCOC(=O)CCN1CCCN(CCC(=O)OCCCCCCCCCCCCCC)CC1 [LF70] | 0.1% | 0.1% | 0.2% | 0.3% | 0.2% | 0.3% |  |  |  |  |  | 
4 | CCCCCCCCCCCCCCOC(=O)CCN(CCC(=O)OCCCCCCCCCCCCCC)CCN(CC)CC [LF75] | 0.7% | 1.0% | 0.7% | 1.9% | 1.7% | 1.7% |  |  |  |  |  | 
5 | CCCCCCCCCCCCCCOC(=O)CCN(CCC(=O)OCCCCCCCCCCCCCC)CCN1CCCC1 [LF76] | 1.7% | 5.6% | 9.8% | 24.3% | 22.2% | 19.5% |  |  |  |  |  | 
6 | CCCCCCCCCCCCCCOC(=O)CCN(CCC(=O)OCCCCCCCCCCCCCC)CCC1CCCN1C (stereo not drawn) [LF77] | 3.7% | 25.1% | 28.2% | 24.1% | 17.0% | 22.1% |  |  |  |  |  | 
7 | CCCCCCCCCCCCCCOC(=O)CCN(CCC(=O)OCCCCCCCCCCCCCC)C(C)CN(C)C (stereo not drawn) [LF79] | 0.1% | 0.3% | 0.3% | 0.3% | 0.3% | 0.3% |  |  |  |  |  | 
8 | CCCCCCCCCCCCCCOC(=O)CCN(CCCN(C)C)CCC(=O)OCCCCCCCCCCCCCC [LF80] | 2.5% | 35.1% | 35.5% | 34.3% | 19.9% | 14.8% |  |  |  |  |  | 
9 | CCCCCCCCCCCCCCOC(=O)CCN(CCCN(CC)CC)CCC(=O)OCCCCCCCCCCCCCC [LF81] | 0.5% | 1.6% | 1.5% | 4.9% | 4.6% | 4.0% |  |  |  |  |  | 
10 | CCCCCCCCCCCCCCOC(=O)CCN(CCC(=O)OCCCCCCCCCCCCCC)CCN1CCCCC1 [LF82] | 0.4% | 0.3% | 0.7% | 0.5% | 0.6% | 0.8% |  |  |  |  |  | 
11 | CCCCCCCCCCCCCCOC(=O)CCN(CCC(=O)OCCCCCCCCCCCCCC)CCN(CCO)CCO [LF86] | 21.5% | 17.9% | 19.6% | 21.2% | 10.5% | 10.4% |  |  |  |  |  | 
12 | CCCCCCCCCCCCCCOC(=O)CCN(CCCN(CCO)CCO)CCC(=O)OCCCCCCCCCCCCCC [LF87] | 19.4% | 11.3% | 30.2% | 13.3% | 11.0% | 10.0% |  |  |  |  |  | 
13 | CCCCCCCCCCCCCCOC(=O)CCN(CCC(=O)OCCCCCCCCCCCCCC)CCN1CCOCC1 [LF90] | 0.4% and 0.5% | 0.5% and 0.4% | 0.3% and 0.7% | 1.3% and 0.4% | 1.1% and 0.4% | 1.5% and 0.4% |  |  |  |  |  | 
14 | CCCCCCCCCCCCCCOC(=O)CCN(CCCN1CCOCC1)CCC(=O)OCCCCCCCCCCCCCC [LF91] | 0.5% | 0.5% | 0.8% | 1.4% | 1.3% | 1.6% |  |  |  |  |  | 
15 | CCCCCCCCCCCCCCOC(=O)CCN(CCCn1ccnc1)CCC(=O)OCCCCCCCCCCCCCC [LF93] | 32.0% | 50.4% | 15.0% | 150.7% | 143.2% | 171.3% | 32.0 | 50.4 | 15.0 | 150.7 | 143.2 | 171.3
16 | CCCCCCCCCCCCCCOC(=O)CCN(CCC(=O)OCCCCCCCCCCCCCC)CCN(CCC(=O)OCCCCCCCCCCCCCC)CCC(=O)OCCCCCCCCCCCCCC [LF99] | 32.2% | 49.8% | 26.5% | 10.7% | 6.0% | 6.2% | 32.2 | 49.8 | 26.5 | 10.7 | 6.0 | 6.2
17 | CCCCCCCCCCCCCCCOC(=O)CCN(CCCOC)CCC(=O)OCCCCCCCCCCCCCCC [LG1] | 0.0% | 0.0% | 0.0% | 0.0% | 0.0% | 0.0% |  |  |  |  |  | 
18 | CCCCCCCCCCCCCCCOC(=O)CCN(CCOC)CCC(=O)OCCCCCCCCCCCCCCC [LG10] | 0.0% | 0.0% | 0.0% | 0.0% | 0.0% | 0.0% |  |  |  |  |  | 
19 | CCCCCCCCCCCCCCCOC(=O)CCN(CCOCC)CCC(=O)OCCCCCCCCCCCCCCC [LG11] | 0.0% | 0.0% | 0.0% | 0.0% | 0.0% | 0.0% |  |  |  |  |  | 
